Measurements: publication PMC7672424 (Nucleic Acids Research, 2020)

Key:
TTA69 = experiment: CD melting, DNA stabilization; format: binding, human; conditions: 5 µM DNA, 20 µM BMPQ-1, 10 mM Tris-HCl, 50 mM KCl, pH 7.4
Procedure: CD studies were performed on a Chirascan circular dichroism spectrophotometer (Jasco, Easton, MD, USA). A quartz cuvette with a 1 mm path length was used to record the spectra over a wavelength range of 220–320 nm with a 1 nm bandwidth. All the samples were prepared in buffer containing 10 mM Tris–HCl pH 7.4, 100 mM KCl. To ensure the concentrations of G-quadruplex units to be 20 μM, multiple G-quadruplexes forming oligonucleotides with different concentrations were used (TTA (G1) 20 μM, TTA45 (G2) 10 μM, TTA69 (G3) 6.67 μM, TTA93 (G4) 5 μM, TTA117 (G5) 4 μM, TTA141 (G6) 3.33 μM). The DNA samples were heated at 95°C for 5 min and cooled down slowly to room temperature. 20, 40 and 60 μM BMPQ-1 were mixed with DNAs separately. Melting curves were measured at 295 nm and the range of temperature was 4–95°C.

tumor cell = experiment: Tumor cell proliferation (summary statement); format: cell-based; conditions: summary value, abstract/introduction
Procedure: The cell growth effect of BMPQ-1 against different cell lines were tested via measuring the quantity of living cells using the Cell Counting Kit-8 (CCK8) (DOJINDO, Japan) according to the instruction. Cells were seeded in a 96-well plate (5 × 10^3 cells/well) and grown for 24 h for attachment. Then the cells were treated with various concentrations of BMPQ-1 and incubated at 37°C with 5% CO2 for 48 h. After incubation, the old medium was discarded followed by adding fresh medium containing 10% FBS in DMEM. Then 100 μl CCK-8 (10% in grow medium) was added into each well, and the cells were further incubated for 1 h. The optical density (OD) was detected at 450 nm by an automated microplate reader (Bio-Rad). The IC50 values were derived from the curves of the mean percentage of survival against the drug concentration. All the experiments were performed in triplicate.

γH2AX foci in A549 cells = experiment: Immunofluorescence of γH2AX and TRF2 foci; format: cell-based, human; conditions: A549, 1.5 μM, 24 h
Procedure: The cells (5 × 10^4 cells) were seeded on 35-mm glass-bottomed dishes and grown for 24 h for attachment. Then old medium was replaced by fresh DMEM containing 1.5 μM BMPQ-1 and incubated for 24 h. After washed three times with PBS buffer, the cells were fixed in 4% paraformaldehyde/PBS for 15 min and then permeabilized with 0.3% Triton-X 100/PBS at 37°C for 20 min. Then the cells were blocked with 5% BSA/PBS at 37°C for 1 h. Finally, the cells were incubated with primary antibodies at 37°C for 3 h. After that, the cells were washed six times with blocking buffer, and were then incubated with secondary antibodies at 37°C for 3 h. Finally, the cells were washed six times with PBS buffer again. The digital images were recorded using a confocal laser scanning microscopy (Olympus FV1000) and analyzed with ImageJ software. One hundred nuclei were counted in each group. […]
Figure 2. […] (B) Quantification of the number of γH2AX foci per nucleus in A549 cells treated with or without BMPQ-1. (C) Quantification of the colocalization of γH2AX and TRF2 per nucleus in A549 cells treated with or without BMPQ-1. […] (E) Quantification of the number of BG4 foci per nucleus in A549 cells treated with or without BMPQ-1. (F) Quantification of the colocalized BG4 and TRF2 per nucleus in A549 cells treated with or without BMPQ-1.

[1] = tested on: FAM-TTA45-TAMRA (DNA, G4) GGGTTAGGGTTAGGGTTAGGGTTAGGGTTAGGGTTAGGGTTAGGG; experiment: FRET melting; conditions: 100 mM K+ (KCl) plus potassium phosphate; 10 mM K2HPO4/KH2PO4 pH 7.0; 0.5 µM DNA, 20 µM compound
[2] = tested on: TTA43 (DNA, G4) GGGTTAGGGTTAGGGTTAGGGTGGGTTAGGGTTAGGGTTAGGG; experiment: fluorescence titration; conditions: 100 mM K+ (KCl) plus potassium phosphate; 10 mM K2HPO4/KH2PO4 pH 7.0; 3 µM compound, DNA 0-10 µM; weaker than TTA45
[3] = tested on: TTA51/T3 (DNA, G4) GGGTTAGGGTTAGGGTTAGGGTTATTATTAGGGTTAGGGTTAGGGTTAGGG; experiment: fluorescence titration; conditions: 100 mM K+ (KCl) plus potassium phosphate; 10 mM K2HPO4/KH2PO4 pH 7.0; 3 µM compound, DNA 0-10 µM; weaker than TTA45
[4] = tested on: TTA45 (DNA, G4) GGGTTAGGGTTAGGGTTAGGGTTAGGGTTAGGGTTAGGGTTAGGG; experiment: ligand fluorescence enhancement; conditions: 100 mM K+ (KCl) plus potassium phosphate; 10 mM K2HPO4/KH2PO4 pH 7.0; 3 µM compound, 2 µM DNA; 10-fold increase at 521 nm
[5] = tested on: c-KIT2 (DNA, G4) GGGCGGGCGCGAGGGAGGGG; experiment: ligand fluorescence enhancement; conditions: 100 mM K+ (KCl) plus potassium phosphate; 10 mM K2HPO4/KH2PO4 pH 7.0; 3 µM compound, 4 µM DNA; enhancement below 3-fold
[6] = tested on: c-MYC Pu22 (DNA, G4) TGAGGGTGGGTAGGGTGGGTAA; experiment: ligand fluorescence enhancement; conditions: 100 mM K+ (KCl) plus potassium phosphate; 10 mM K2HPO4/KH2PO4 pH 7.0; 3 µM compound, 4 µM DNA; enhancement below 3-fold

Cc1ccc(Cn2cc3c(-c4ccc5c(c4)OCO5)nnc-3c3cc4c(cc32)OCO4)cc1 [BMPQ-1]
ΔTm (°C) TTA69 (TTA69): 13.8 °C
IC50 (tumor cell): ~1 µM
co-localization between γH2AX foci and TRF2 (γH2AX foci in A549 cells): increase on the co-localization between γH2AX foci and TRF2 was observed with statistical significance
average number of γH2AX foci in individual cells (γH2AX foci in A549 cells; compared with control): trebled
ΔTm [1]: 16.09 ± 1.79 °C
binding [2]: yes
binding [3]: yes
binding [4]: yes
binding [5]: weak
binding [6]: weak
